Numbering of substitutions follows the chain as printed. Where a SMILES comes first, the peptide text is derived from it. [ ]: non-standard residue; d: D form. pT = C[C@@H](OP(=O)(O)O)[C@H](N)C(=O)O
Tests used:
PDK1[K76A] = target: T1, PDK1[K76A] (Homo sapiens, UniProt O15530, K76A); test: PDK1 catalytic activity towards T308tide, activation by peptides, PDK1[K76A]; format: biochemical; conditions: T308tide substrate
T1 construct: made in house; host or cells: human embryonic kidney 293 cells (pEBG2T vector)
T1 sequence (O15530 1-556 K76A): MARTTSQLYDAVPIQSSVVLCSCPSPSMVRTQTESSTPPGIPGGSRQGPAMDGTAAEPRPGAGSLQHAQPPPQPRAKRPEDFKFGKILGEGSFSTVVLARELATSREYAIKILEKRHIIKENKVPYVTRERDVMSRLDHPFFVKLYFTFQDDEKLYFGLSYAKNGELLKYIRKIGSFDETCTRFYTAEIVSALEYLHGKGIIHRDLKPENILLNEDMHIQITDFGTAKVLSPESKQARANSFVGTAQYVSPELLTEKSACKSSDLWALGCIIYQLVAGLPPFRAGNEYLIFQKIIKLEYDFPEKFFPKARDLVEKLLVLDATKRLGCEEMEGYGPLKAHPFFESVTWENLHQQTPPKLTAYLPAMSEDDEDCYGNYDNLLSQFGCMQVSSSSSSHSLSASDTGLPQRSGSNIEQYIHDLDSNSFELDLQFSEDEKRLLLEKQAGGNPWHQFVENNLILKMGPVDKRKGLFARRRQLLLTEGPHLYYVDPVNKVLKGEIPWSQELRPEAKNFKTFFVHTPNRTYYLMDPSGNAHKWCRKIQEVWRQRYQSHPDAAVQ
Method: (§1) C. Activation of the indicated forms of PDK1 by 56K-pHM and S6K-HM. PDK1 activity was measured using the peptide substrate (T308tide) in the presence of the indicated concentrations of 56K-pHM (closed circles) and S6K-HM (open circles) as described in the methods. Assays were performed in triplicate and similar results obtained in 2 separate experiments. The results are the average—SD for a single experiment.
(§2) The ability of wild type and mutant PDK1 to phosphorylate the synthetic peptide T308tide ([…] ([Biondi et al., 2000]) (SEQ ID NO:108) was carried out in 30 μl assays containing 100 ng of wild type or mutant PDK1, 50 mM Tris/HCl pH 7.5, 0.1% 13-mercaptoethanol, 10 mM MgCl2, 100 μM [32γ P]ATP (200 cpm/pmol), 0.5 μM microcystin-LR, 1 mM T308tide in the presence or absence of the indicated concentrations of the 56K-pHM peptide ([…](P)YVAPSV) (SEQ ID NO:104) or 56K-HM. peptide ([…]) (SEQ ID NO:105). After incubation for 10 min at 30° C., 25 μl of the resultant mixture was spotted into P81 phosphocellulose paper (2×2 cm) and the papers washed and analysed as described previously for assays of MAP kinase. Control assays were carried out in parallel in which either PDK1, or peptide substrate were omitted; these values were always less than 5% of the activity measured in the presence of these reagents. […]

wild type PDK1 = target: T2, wild type PDK1 (Homo sapiens, UniProt O15530); test: PDK1 catalytic activity towards T308tide, activation by peptides, wild type PDK1; format: biochemical; parameters: made in house; conditions: T308tide substrate
T2 sequence (O15530 1-556): T1 sequence (O15530 1-556 K76A) with A76K
Method: as §1, §2

CC(C)C[C@H](NC(=O)[C@H](Cc1ccccc1)NC(=O)[C@@H](NC(=O)[C@H](CCC(N)=O)NC(=O)[C@H](CC(N)=O)NC(=O)[C@H](C)NC(=O)[C@H](CO)NC(=O)[C@H](CCC(=O)O)NC(=O)[C@@H](N)CO)C(C)C)C(=O)NCC(=O)N[C@@H](Cc1ccccc1)C(=O)N[C@H](C(=O)N[C@@H](Cc1ccc(O)cc1)C(=O)N[C@H](C(=O)N[C@@H](C)C(=O)N1CCC[C@H]1C(=O)N[C@@H](CO)C(=O)N[C@H](C(=O)O)C(C)C)C(C)C)[C@@H](C)OP(=O)(O)O [S6K-pHM] (H-SESANQVFLGF[pT]YVAPSV-OH; N-terminus and C-terminus assumed)
higher concentration required to half maximally activate PDK1[K76A] than wild type (PDK1[K76A]): approximately 3 fold | maximal activation of PDK1 (wild type PDK1): 5 fold
